Where two headings read alike, the source gives them in different places.
Tests used:
[1] = molecular target: T1, PH domain of PHLPP1 (GST-PH domain fusion protein) (Homo sapiens, UniProt O60346); experiment: Surface plasmon resonance binding, PHLPP1 PH domain; details: SPR; means (n = 3) ± SD; read-out: Kd, PHLPP1 PH domain
T1 construct: made in house
T1 sequence (O60346 536-636 limits assumed): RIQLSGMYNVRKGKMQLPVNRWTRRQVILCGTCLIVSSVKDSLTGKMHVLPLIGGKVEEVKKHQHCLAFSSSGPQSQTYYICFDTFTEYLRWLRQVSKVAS
Description: The cDNA fragments corresponding to the putative PH domain sequences of PHLPP1 (+115 to +372), PDK1 (+1225 to +1671), Akt1 (+1 to +447) and ILK (+538 to +646) were PCR-amplified using the plasmids pcDNA-HA-PHLPP1, pWZL-Neo-Myr-FLAG-PDPK1, pcDNA-HA-PKB-T308D-S473D, and pCMV-SPORT-ILK (Addgene) as templates. The PCR products were then cloned into EcoRI/XhoI sites of the pGEX-4T1 expression vector (GE Healthcare Life Sciences) to generate four constructs (pGEX-4T1-PHLPP1, pGEX-4T1-PDPK1, pGEX-4T1-AKT1, pGEX-4T1-ILK) for the expression of GST-PH domain fusion proteins. The mutated Akt1 Y38G PH domain was generated from pGEX-4T1-AKT1 by site-directed mutagenesis using the QuikChange II XL Site-Directed Mutagenesis Kit (Agilent Technologies). The expression and purification of GST-PH domain fusion proteins were performed essentially as described previously. Thomas et al., Curr Biol 12, 1256 (2002). The purified PH domains were analyzed by SDS-PAGE using an overloaded gel with purities were estimated to be >95% using ImageJ software.
Binding experiments were performed using a Biacore T100 system (GE Healthcare, Piscataway, N.J.). The GST-PH domain fusion proteins were immobilized on a CM5 S Sensorchip using Biacore's Amine Coupling Kit to a level of 17,000 response units. VE5 compounds and di-octanoyl PIP3 at concentrations ranging from 0.1 to 100 μM and 1 to 20 μm, respectively, were injected at a high flow rate (30 μL/min) over the biosensor surface for binding analyses. DMSO concentrations in all samples and running buffer were 1% (v/v) or less. Data were analyzed using Biacore T100 Evaluation Software.

[2] = tested on: PC-3 cells; experiment: MTT viability assay, PC-3; format: cell-based; details: Homo sapiens
Protocol: (§1) The prostate cancer cell lines, LNCaP and PC-3, were purchased from American Type Culture Collection (Manassas, Va.) and maintained in RPMI 1640 medium containing 10% heat-inactivated fetal bovine serum at 37° C. in a humidified incubator containing 5% CO2. The LNCaP-abl cells were a generous gift from Dr. Qianben Wang (The Ohio State University). Normal prostate epithelial cells were purchased from Lonza (Walkersville, Md.) and were cultured in the vendor-recommended defined prostate epithelial cell growth medium. For experiments, LNCaP cells were plated on poly-D-lysine-coated culture flasks at a density of 12,000 cells per cm^2 surface area for 24 hours, followed by treatment with test agents in serum-free RPMI 1640 medium. The α- and γ-tocopherols were purchased from Sigma-Aldrich (St. Louis, Mo.). The tocopherol derivatives, α- and γ-VE5, were synthesized by the inventors.
(§2) LNCaP cells were plated into poly-D-lysine-coated 96-well plates and PC-3 and LNCaP-abl cells into uncoated plates at the density of 5,000 cells per well in the presence of 10% FBS. Normal prostate epithelial cells were plated into uncoated plates at a density of 8,000 cells per well. […] After 24 hours of treatment, cells were incubated with MTT [3-(4,5-dimethylthiazol-2-yl)-2,5-diphenyl-2H-tetrazolium bromide] (TCI America; 0.5 mg/ml, final concentration) for an additional 2 hours. The medium was then removed from each well and replaced with DMSO to dissolve the reduced MTT dye for subsequent colorimetric measurement of absorbance at 595 nm. Cell viabilities are calculated as percentages of that in the corresponding vehicle-treated control group.

[3] = tested on: phosphorylation of Ser473 in Akt; experiment: Western blot of Akt phosphorylation at Ser473; format: cell-based; details: LNCaP and PC-3 cells, Thr308 not altered
Protocol: (§3) Cells were exposed to the test agents in 10-cm dishes for 24 hours and then collected by scraping. The cell pellets were washed once with PBS, and then lysed at 4° C. over 30 min of incubation in a sodium dodecyl sulfate (SDS) lysis buffer containing 1% SDS, 50 mM Tris HCl (pH 8.1), 10 mM EDTA and […] protease inhibitor cocktail (Sigma-Aldrich). The cell debris was pelleted by centrifugation for 20 min at 14,000×g, and 1 μl of each supernatant was used for determination of protein concentration using a colorimetric bicinchoninic assay (Pierce, Rockford, Ill.). The remaining sample was added to equal volume of 2×SDS-polyacrylamide gel electrophoresis sample loading buffer (62.5 mM Tris-HCl, pH 6.8, 4% SDS, 5% β-mercaptoethanol, 20% glycerol, 0.1% bromophenol blue), followed by incubation in boiling water for 5 min. Equivalent amounts of total protein were resolved in SDS-polyacrylamide gels, and then transferred to nitrocellulose membranes using a semidry transfer cell. The transblotted membrane was washed twice with Tris-buffered saline containing 0.1% Tween 20 (TBST). After blocking with TBST containing 5% nonfat milk for 40 min, the membrane was incubated with the appropriate primary antibody (1:1000) in TBST-1% nonfat milk at 4° C. overnight. The membrane was then washed three times with TBST for a total of 15 min, followed by incubation with goat anti-rabbit or anti-mouse IgG-horseradish peroxidase conjugates (1:2000) for 1 hour at room temperature and four washes with TBST for a total of 1 hour. The immunoblots were visualized by enhanced chemiluminescence (GE Healthcare Life Sciences).

[4] = tested on: LNCaP cells; experiment: MTT viability assay, LNCaP; format: cell-based; details: Homo sapiens, 1% FBS-containing or serum-free RPMI 1640 medium for 24 h
Protocol: as §1, §2

[5] = tested on: LNCaP-abl cells; experiment: MTT viability assay, LNCaP-abl; format: cell-based; details: Homo sapiens; LNCaP-abl cells (comparable to parental LNCaP); read-out: IC50, antiproliferative effect
Protocol: as §1
LNCaP cells were plated into poly-D-lysine-coated 96-well plates and PC-3 and LNCaP-abl cells into uncoated plates at the density of 5,000 cells per well in the presence of 10% FBS. […] The medium was then removed from each well and replaced with DMSO to dissolve the reduced MTT dye for subsequent colorimetric measurement of absorbance at 595 nm. Cell viabilities are calculated as percentages of that in the corresponding vehicle-treated control group.

[6] = tested on: mTORC2 (mTOR, rictor, SGK, PKCα); experiment: Western blot of mTORC2 components and downstream targets; format: cell-based
Protocol: as §3

| Structure (SMILES) | Kd [1] | IC50 ([2]; PC-3, 1% FBS-containing or serum-free RPMI 1640 medium for 24 h, read-out: IC50 (μM) PC-3) | effect on phosphorylation of Akt at Ser473 [3] | IC50 [4] | IC50 [5] | abundance or phosphorylation of mTORC2 components and targets (mTOR, rictor, SGK, PKCα) [6] | IC50 ([2]; PC-3, 24 h, 1% FBS-containing or serum-free RPMI 1640 medium for 24 h, read-out: IC50 (μM) PC-3) | IC50 ([2]; PC-3, Table 3, antitumor activities against PC-3 cells, read-out: IC50) | IC50 ([4]; 24 h) |
| --- | --- | --- | --- | --- | --- | --- | --- | --- | --- |
| Cc1c(C)c2c(c(C)c1O)CC[C@@](C)(CCCC(C)C)O2 [α-VE5, (R)-2,5,7,8-tetramethyl-2-(4-methylpentyl)-chroman-6-ol] | 3.1 ± 0.3 µM | 15 µM | parallel reduction | 20 µM | 10 µM | lack of changes |  |  |  |
| Cc1c(O)cc2c(c1C)O[C@](C)(CCCC(C)C)CC2 [γ-VE5, (R)-2,7,8-trimethyl-2-(4-methylpentyl)-chroman-6-ol] | 0.7 ± 0.1 µM |  | parallel reduction |  | 7 µM | lack of changes | 8 µM | 8.5 µM | 12 µM |

Source: patent US20140031388A1, “AKT INACTIVATION BY TOCOPHERYL DERIVATIVES” (priority 2012, published 2014)
